Like-named read-outs stand apart in the source and are kept apart here.

This series is described as follows: Single-dose pharmacokinetics study in rats (BBR•HCl, EPA-EE, BBR + EPA-EE; 3 rats per group). The format is in vivo. As to conditions: male, Sprague-Dawley, rat, SD rats, single oral administration, plasma. Here is the method: In the single-dose pharmacokinetics study in rats, after 7-day acclimation, healthy male Sprague-Dawley (SD) rats with the body weight of 210-250 g were randomized into four groups as follows (3 rats per group).
The rats in each group were orally treated with the suspensions of the corresponding testing articles indicated above in 0.5% gum tragacanth respectively. Blood samples of the test animals were collected pre-dose and at the time points of 15 min, 30 min, 1 h, 1.5 h, 2 h, 4 h, 8 h, 24 h post-dose. The collected blood samples (approximately 400 μL) were placed into tubes containing heparin sodium and centrifuged at 8,000 rpm for 6 minutes at 4° C. to separate plasma. The obtained plasma from each sample was stored at −80° C. until being analyzed.
Plasma concentrations of BBR and EPA were determined using tandem mass spectrometry (LC-MS/MS) analysis. A non-compartmental module of WinNonlin® Professional 5.2 (Pharsight; St. Louis MO), was used to calculate PK parameters. The abbreviation AUC(0-t) represents area under the curve from the time of dosing to the time of the last observation, the AUC(0-∞) represents area under the curve from the time of dosing to infinity, and the Cmax represents maximum concentration detected.

Usually AUC(0-t) stands for exposure summed from dosing to a finite time, without extrapolation to infinity. What is called Cmax is the maximum level reached in the sampled fluid or tissue. Turning to `COc1ccc2cc3[n+](cc2c1OC)CCc1cc2c(cc1-3)OCO2` [BBR, 5,6-dihydro-9,10-dimethoxybenzo[g]-1,3-benzodioxolo[5,6-a]quinolizinium], the AUC(0-t) (BBR•HCl 51.13 mg/Kg (alone or + EPA-EE 45.48 mg/Kg), read-out: BBR AUC(0-t)) was 7.46 ng·h/mL. Further, the AUC(0-inf) (BBR•HCl 51.13 mg/Kg (alone or + EPA-EE 45.48 mg/Kg), read-out: BBR AUC(0-∞)) is 8.84 ng·h/mL. The Cmax (BBR•HCl 51.13 mg/Kg (alone or + EPA-EE 45.48 mg/Kg), read-out: BBR Cmax) worked out at 0.95 ng/mL.
Take `CCC=CCC=CCC=CCC=CCC=CCCCC(=O)O` (stereo in doubt) [EPA, (5Z,8Z,11Z,14Z,17Z)-5,8,11,14,17-icosapentaenoic acid]: the AUC(0-t) (EPA-EE 45.48 mg/Kg (alone or + BBR•HCl 51.13 mg/Kg), read-out: EPA (Free acid) AUC(0-t)) is 3750 ng·h/mL. Moreover, the AUC(0-inf) (EPA-EE 45.48 mg/Kg (alone or + BBR•HCl 51.13 mg/Kg), read-out: EPA (Free acid) AUC(0-∞)) was 6600 ng·h/mL. Further, under “EPA-EE 45.48 mg/Kg (alone or + BBR•HCl 51.13 mg/Kg), read-out: EPA (Free acid) Cmax”, the Cmax came to 629 ng/mL.
